Earlier results on one compound are cited in patent US9851354B2, “Methods of treating fragile X syndrome and related disorders” (Alcobra Ltd., priority 2013, dated 2017).

The conditions of this data set: cited from earlier work.
Where [1] appears, read: randomized placebo-controlled trial in autistic children (McCracken 2002).

For the compound `Cc1nc2n(c(=O)c1CCN1CCC(c3noc4cc(F)ccc34)CC1)CCCC2` [risperidone], under “autistic children”, the “social isolation and communication” value was “not improved”. For the same compound, under setting [1], the adverse events result is “weight gain, increased appetite, fatigue, drowsiness, dizziness, and drooling”; the “irritability subscale of the Aberrant Behavior Checklist and Clinical Global Impressions-Improvement” value is on record as “significant improvement”. For the same compound, for the setting “use in autistic children”, the “adverse side effects associated with use” value was “extrapyramidal symptoms and dyskinesias”.
